Results on 87 molecules are retold here after a melting point compilation (Tetko et al.; mined from patent text by program, amines drawn as free bases though some values may be those of a salt).

One may read the melting point as the temperature, or range, at which the solid turns liquid.

Take `OC(Cn1cncn1)(c1ccc(Cl)cc1)C1(C2CC2)CC1` (configuration not stated): the melting point fell in the range of 110 to 112 °C.

For the molecule `COc1ccccc1S(=O)(=O)OC(Cl)C(=O)c1ccccc1` (configuration not stated), the melting point amounted to 83 °C. `O=C(c1ccc(Cl)cc1)c1c(N2C(=O)c3ccccc3C2=O)sc(Br)c1CN(C1CCCCC1)C1CCCCC1` displayed a melting point of 173 to 175 °C.

For `COC(=O)c1cc2c(cc1O)CCCC2`, the melting point was 41 to 42 °C. As for `COCCn1nc2c(N)nc3ccccc3c2c1CCCCNS(C)(=O)=O`, the melting point is 159 to 161 °C.

Molecule `CCOC(=O)C(=NOCc1ccc(OCc2nc(-c3ccccc3)oc2C)cc1)c1ccc(Br)cc1` displayed a melting point of 105 to 106 °C.

The molecule `c1ccc2c(-c3nc(NC4CCCCC4)c4ccccc4n3)nccc2c1` had a melting point of 275 to 277 °C. `CC12CC=CCC1CCC1C2CCC2(C)C(C(N)=O)CCC12` (configuration not stated) displayed a melting point of 199 to 202 °C.

As to `CC1(C)Oc2ccc(C#N)cc2[C@@H](OC2=CC(=O)CC2)[C@@H]1O` (relative stereo), the melting point fell in the range of 154 to 156 °C.

Molecule `COC(=O)c1c2ccccc2nc2c3ccccc3n(C)c12` showed a melting point of 127 °C. For the molecule `Fc1ccc(CN2CCCC(Nc3nccc(-c4c(-c5ccc(F)cc5)nc5sccn45)n3)C2)cc1` (configuration not stated), the melting point is 131 to 133 °C. The result for `COc1ccc(CC(=O)c2cccnc2)cc1OC` reads 188 to 191 °C; that for `Nc1nccc(OCc2ccccc2)c1N`, 135 to 136 °C. The result for `COc1ccc2[nH]cc(CCc3nc4ccccc4c(=O)n3-c3ccccc3)c2c1` reads 220 to 221 °C.

`CCN(CC)c1ccc(NC(=O)N(C[C@H]2CC[C@H](CN(C(=O)Nc3ccc(N(CC)CC)cc3)C3CCCCCC3)CC2)C2CCCCCC2)cc1` showed a melting point of 170 to 175 °C.

Turning to `CCOP(=O)(/C=C/c1cn(-c2ccccc2)nc1OCc1ccc(OCc2nc(-c3ccco3)oc2C)nc1)OCC`, the melting point lay within 134 to 135 °C. The figure for `CS(=O)c1ccc(-c2cnn(CC(F)(F)F)c(=O)c2-c2ccc(Cl)cc2)cc1` (configuration not stated) is 154 to 155 °C; for `OC(CCCN1CCN(c2ncc(F)cn2)CC1)(c1ccc(F)cc1)C1CCCCC1` (configuration not stated) it is 53 to 59 °C; for `O=c1c(-c2ccccc2)c(SCc2ccncc2)oc2cc(OCc3ccccc3)ccc12` it is 169 to 170 °C. Take `Nc1nc(C2CC2)nc(C(Cl)(Cl)Cl)n1`: the melting point was in the range of 111 to 114 °C. For the molecule `O=CC1(Nc2ccccc2)CCN(CCc2ccccc2)CC1`, the melting point lay within 83 to 84 °C. In turn, `CCCCc1nn2cc(-c3ccccc3)nc2n1Cc1ccc(-c2ccccc2-c2nnn[nH]2)cc1` displayed a melting point above 160 °C. The result for `COc1ccc(Cl)cc1C(=O)NCCc1ccc(Br)c(S(=O)(=O)N=CN(C)C)c1` reads 150 to 152 °C; that for `CN(CCNc1ccc2ncc(Br)n2n1)C(=O)OC(C)(C)C`, 128 to 129 °C; that for `Cc1ccc2c(c1)Sc1cc(C)ccc1O2`, 69 to 70 °C. The result for `CN(C)C(=O)CCN1CCC(C(O)(c2ccc(F)cc2)c2ccc(F)cc2)CC1` reads 134 to 135 °C; that for `CN(C)CCNC(=O)c1ccc(Br)cc1`, 67 to 69 °C. The figure for `O=C1CCCc2c1c1cccc(F)c1n2Cc1ccccc1` is 183 to 184 °C. Regarding `CCc1cc2c(s1)-n1c(C)nnc1C(N)N=C2c1ccccc1Cl` (configuration not stated), the melting point fell in the range of 130 to 131 °C. `Cc1cn2ccc3c(c2n1)NC(c1ccccc1)C(OC(=O)C(C)(C)C)C3=O` (configuration not stated) showed a melting point of 145 to 147 °C.

On to `O=C(O)C1=Cc2cc(OC(F)(F)F)ccc2OC1C(F)(F)F` (configuration not stated), for which the melting point fell in the range of 118 to 120 °C. The figure for `O=C1c2ccccc2C(Cc2ccnc(F)c2)(Cc2ccnc(F)c2)c2ccccc21` is 156 to 157 °C; for `CCCCCCCCC(=O)COS(=O)(=O)c1c(C)c(C)cc(C)c1C` it is 36 to 37.5 °C; for `Nc1ccccc1NC(=O)c1ccc(CNC(=O)OCc2cccnc2)cc1` it is 159 to 160 °C. `Cn1ncc2c1-c1c(Oc3cccnc3OCCN3CCCC3=O)sc(C(=O)O)c1CC2` came in with a melting point of 202 to 204 °C. `O=C(NCc1cc(Cl)cc(Cl)c1)c1ccnc(NC(=O)c2ccccc2)c1` came in with a melting point of 248 to 251 °C. Take `NS(=O)(=O)c1ccc(C2=C(c3ccc(F)cc3)CC3(CC3)C2)cc1`: the melting point was 131 to 133 °C. In turn, `C=CCNC(=O)CC(=O)C=Cc1ccccc1[N+](=O)[O-]` registered a melting point of 128 to 129 °C. `Cc1ccc(C(=O)NC(Cc2ccccc2)NC(=S)Nc2cccc([N+](=O)[O-])c2)cc1` (configuration not stated) gave a melting point of 170 to 171 °C. On to `C=CCN(CC=C)S(=O)(=O)c1ncn(C(=O)N(CC)CC)n1`, for which the melting point was in the range of 49 to 51 °C. Consider `Cc1nn(C)c(C)c1Oc1cc(Cl)cc(C#N)c1`, for which the melting point was 114 to 116 °C. `CC(C)C1(C)N=C(c2ncc(C3CC3)cc2C(=O)O)NC1=O` (configuration not stated) returned a melting point of 157 to 163 °C. Take `Cc1c(F)ccc(C(=O)O)c1F`: the melting point fell in the range of 168 to 170 °C.

`COc1cc2c(Nc3cccc(Cl)c3F)ncnc2cc1OC1CCN(C(=O)[C@@H](C)O)CC1`: the melting point is 107 to 111 °C. In turn, `Cc1cc(C)c(Nc2nc(Nc3ccc(C#N)cc3)nc(Cl)c2Br)c(C)c1` came in with a melting point of 220 to 221 °C.

`Nc1nc(N)c(-c2cccc(Cl)c2Cl)c(C(F)(F)F)n1` displayed a melting point of 218 to 219 °C. With `CCc1c(C(=O)O)sc2[nH]c(=O)c(=O)[nH]c12`, the melting point fell in the range of 230 to 232 °C. `COC(=O)c1cn(C2CC2)c2c(F)c(F)c(F)cc2c1=O` registered a melting point of 214 to 216 °C. The figure for `CC(C)(C(N)=O)c1ccc2nc(-c3ccncc3)[nH]c2c1` is 274 to 276 °C; for `Cc1ccc(Sc2nc(Cl)cc(OCCC(C)C)n2)cc1` it is 83 to 86 °C; for `CCCCCCCCCCCCCCCCCCS(=O)(=O)c1cc2ccccc2cc1O` it is 98 to 99 °C.

As to `CC(=O)OC1CCCC2=CCC3C4CCC(C(C)CCCC(C)C)C4(C)CCC3C21C` (configuration not stated), the melting point lay within 65 to 66 °C. The result for `CN(C)S(=O)(=O)NCC1COc2ccccc2O1` (configuration not stated) reads 76 to 78 °C. The result for `COc1ccc(C(=O)c2ccncc2)cc1OC` reads 117 to 118 °C. `CC1C=C(c2nc3cccc(F)c3s2)C=CC1=N` (configuration not stated) had a melting point of 175 to 177 °C. The figure for `CCOC(=O)c1noc(C2CC2)c1C(=O)c1ccc(Br)cc1CSC` is 42 to 43 °C; for `NC(=O)CNC(=O)c1cccc(-c2cccc3cc(Cc4cc(F)cc(C(F)(F)F)c4)sc23)c1` it is 169 to 170 °C; for `COC(=O)c1cccc2nc(Cl)n(Cc3ccc(-c4ccccc4C#N)cc3)c12` it is 154 to 157 °C.

For the molecule `O=[N+]([O-])C1=C2N(CC3CCOC3)CCN2C2CCCC1O2` (configuration not stated), the melting point lay in the range of 115 to 117 °C. The molecule `CN(C)CCNC(=O)c1nc(N)sc1-c1ccccn1` returned a melting point of 143 to 144 °C.

`CC(C)(C)OC(=O)Nc1nc2cc(NC(=O)C(=O)N3CCC(Cc4ccccc4)CC3)ccc2[nH]1` displayed a melting point of 192 °C. The result for `CN1CCN(C(=O)[C@H]2CC[C@H](c3[nH]nc4c3C(=O)c3c(NC(=O)NN5CCOCC5)cccc3-4)CC2)CC1` reads 228 to 230 °C; that for `Cn1c2c(c3cc(O)ccc31)CC(CO)C2` (configuration not stated), 153 to 154 °C; that for `O=C1OCc2c1cccc2[N+](=O)[O-]`, 134 to 136 °C. The result for `COc1cc2ncc(C#N)c(Nc3cccc(Br)c3)c2cc1OC` reads 224 to 228 °C; that for `CCNC1CCN(c2c(F)cc3c(=O)c(C(=O)O)cn(C4CC4)c3c2OC)CC1C` (configuration not stated), 160 to 162 °C; that for `Cc1ccnc(C(=O)c2[nH]c3ccc(Cl)cc3c2CC(=O)O)c1`, 230 to 231 °C. The result for `CCc1nn(CCO)c(CC)c1Oc1cc(-n2cccn2)cc(-n2cccn2)c1` reads 108 to 110 °C; that for `O=C1NC(=O)C(Cc2ccc(C(=O)/C=C/c3ccccc3)cc2)S1` (configuration not stated), 147 to 149 °C.

In turn, `COCCNC(=O)c1ccc(N2CCC(N3C(=O)OCc4ccccc43)CC2)c([N+](=O)[O-])c1` showed a melting point of 192 to 193 °C.

Take `CC1CC(n2ccc(-c3ccc(F)cc3)c2-c2ccncc2)CCN1` (configuration not stated): the melting point fell in the range of 173 to 175 °C. For the molecule `CC(C)=CCOc1ccc(C(=O)C=Cc2cccs2)c(O)c1`, the melting point was 100 to 102 °C.

For the molecule `CCn1c([N+](=O)[O-])cnc1-c1nnc2ccc(Cl)nn12`, the melting point was 164 to 166 °C. The figure for `CC(C)=C1CC(=O)N(c2cc(F)c(C#N)cc2F)C1=O` is 135 °C; for `CS(=O)c1cc(CCC(=O)O)cc(-c2nc(=O)c3ccccc3s2)n1` (configuration not stated) it is 266 °C. Take `BrCCCCCCC1(CCCCCCBr)c2cc(Br)ccc2-c2ccc(Br)cc21`: the melting point was 68 °C.

For `O=C1N(c2cc(Cl)cc(Cl)c2)C(=O)C2(Cc3ccc(-c4ccc([N+](=O)[O-])cc4)cc3)CCCN12` (configuration not stated), the melting point lay in the range of 72 to 73 °C. As to `CN(Cc1ccccc1)Cc1c(-c2ccc([N+](=O)[O-])cc2)sc2c1c(=O)c(C(=O)c1ccccc1)cn2Cc1c(F)cccc1F`, the melting point lay in the range of 197 to 199 °C. In turn, `Brc1cccc(C2Cc3cnc(Nc4ccc(CCNCCN5CCOCC5)cc4)nc3-c3ccccc32)c1` (configuration not stated) showed a melting point of 85 to 87 °C. Regarding `CNC(=O)Cc1c(C(=O)c2ccccc2)[nH]c2cc(Cl)ccc12`, the melting point fell in the range of 242 to 246 °C. The molecule `CC(C)(O)c1cccc(-c2ccc3nc(-c4ccc(Cl)cc4)cn3c2)c1Cl` yielded a melting point of 230 to 231 °C. Turning to `CNc1nc(-c2ccc(-c3ccccc3)cc2)c(C(=O)OC)s1`, the melting point was above 230 °C.

As for `CC1(C)Oc2cc3nc(S)[nH]c3cc2O1`, the melting point is above 300 °C.

Regarding `Cc1cc(Oc2csc(C(F)(F)F)c2)nc(-c2ccc(C(F)(F)F)cc2)n1`, the melting point lay in the range of 83.5 to 85 °C. In turn, `CC(C)(C)NCCCNC(=O)Cn1cnc(-c2ccccc2)c1-c1ccccc1` showed a melting point of 94 to 96 °C. In turn, `Cc1cc(Cl)cc(CO)c1` displayed a melting point of 32 to 34.5 °C.

In turn, `COC(=O)c1ccc2c(=O)n(CC(C)C)c(CNC(=O)OC(C)(C)C)c(-c3cccs3)c2c1` had a melting point of 170 to 171 °C.
